Source: patent US10023841B2, “Methods and compositions for treating breast cancer with dendritic cell vaccines” (Baylor Research Institute, priority 2014, dated 2018)
The star is where a group is joined. Cbz = O=C(OCc1ccccc1)*; CH2F = FC*

Columns and labels:
caspase-1 = target: T1, caspase-1 (Homo sapiens, UniProt P29466); test: MDA-MB231/mDC co-culture with caspase-1 inhibitor: proIL-1β and mature IL-1β staining; type: cell-based
T1 construct: MDA-MB231 cells and mDCs were co-cultured in chamber well; endogenous in cells; host or cells: human blood mDCs co-cultured with MDA-MB231 cells
T1 sequence (P29466 120-297 limits assumed): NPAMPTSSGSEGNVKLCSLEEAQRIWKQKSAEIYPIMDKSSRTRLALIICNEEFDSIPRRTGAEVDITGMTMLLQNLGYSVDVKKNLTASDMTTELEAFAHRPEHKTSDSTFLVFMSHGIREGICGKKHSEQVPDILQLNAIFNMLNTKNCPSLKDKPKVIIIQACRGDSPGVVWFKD
T1 sequence (P29466 317-404 limits assumed): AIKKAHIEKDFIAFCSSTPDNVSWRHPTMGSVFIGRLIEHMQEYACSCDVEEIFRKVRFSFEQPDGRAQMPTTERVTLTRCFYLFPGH
Protocol: In most cases, caspase-1 is needed for proteolytic cleavage and secretion of mature IL-1β. It was tested whether TGF-β-dependent IL-1β production also required the activation of caspase-1. MDA-MB231 cells and mDCs were co-cultured in chamber well in presence of 1 uM of caspase-1 inhibitor or DMSO as vehicle control. 18 hours later, cells were fixed and stained with specific antibody against pro-peptide of IL-1β (FIG. 7A), or mature IL-1β (FIG. 7B), both accompanied with HLA-DR staining. […] Four areas were counted for the percentage of proIL-1β^+ cells within HLA-DR^+ cells for both DMSO or caspase-1 inhibitor treated wells. Almost 95% of mDCs show accumulation of proIL-1β intracellularly, while only around 50% of mDCs express proIL-1β (FIG. 7A right panel). Using a similar experimental system, mature IL-1β production in presence or absence of caspase-1 inhibitor was also measured.

[1] = tested on: HS-578t or MDA-MB231 cells; test: TSLP induction in breast cancer cell lines by cytokines (real-time PCR, Luminex); type: cell-based, human; conditions: for TSLP mRNA level by quantitative real-time PCR: HS-578t and MDA-MB231 cells, 10 ng/ml, as early as 2 hours
Protocol: […] For tumor cells and mDCs coculture experiment, 100 k tumor cells were seeded in 24 well plate to grow overnight, then media was refreshed and 100 k mDCs were added to coculture for another 24-72 h. For the transwell experiment, 24-well-plate with inserts were used (Corning). 200K tumor cells were seeded in the plate to grow at least overnight, then 200 k mDCs were added into inserts. After 48 h of co-culture, supernantants were harvested to determine IL-1β level by ELISA (Duoset, R&D System).
Samples were treated and lysed with Buffer RLT, and then stored at −80° C. until RNA extraction. Total RNA was isolated and purified from each sample by using RNeasy kit and RNase-free DNase (Qiagen) according to the manufacturer's instructions. cDNA was generated from total RNA with iScript™ cDNA Synthesis Kit. The resulting cDNA was then used for quantitative gene expression analysis on a Sequence Detection System 7,500 (Applied Biosystems). The primers used were as follows: human (h)TSLP, 5′-[…]-3′ (SEQ ID NO:41) and 5′-[…]-3 (SEQ ID NO:42), and human (h)IL-1β, 5′-[…]-3′ (SEQ ID NO:43) and 5′-[…]-3′ (SEQ ID NO:44), human (h) GAPDH, 5′-[…]-3′ (SEQ ID NO:45) and 5′-[…]-3′ (SEQ ID NO:46), human (h) ABL1, 5′-[…]-3′ (SEQ ID NO:47) and 5′ […]-3′ (SEQ ID NO:48), human (h) PGK1, 5′-[…]-3′ (SEQ ID NO:49) and 5′-[…]-3′ (SEQ ID NO:50), human (h) PES1, 5′-[…]-3′ (SEQ ID NO:51) and 5′-A […]-3′ (SEQ ID NO:52). Equal amounts of cDNA were used with the iTaq SYBR Green Supermix with ROX (Bio-Rad) and primer mix according to the real-time PCR protocols supplied by the manufacturer. Amplification efficiencies were validated against the housekeeping gene, GAPDH, PES1, and ABL1. […] The relative quantification of target gene expression was done by the comparative cycle threshold (CT) method. […]
Different pro-inflammatory cytokines have the potential to induce TSLP from keratinocytes, both transcriptionally and translationally. […] Cells were harvested and TSLP mRNA levels were measured by quantitative real-time PCR (FIG. 4A). […] TSLP levels in the culture supernatants were determined by Luminex. […]

TAK1 [2] = target: T2, TAK1 (Homo sapiens, UniProt O43318); test: IL-1β in co-culture of cancer cells and myeloid cells upon TAK1 inhibition; type: cell-based
T2 construct: endogenous in cells; host or cells: human blood monocytes, monocyte-derived DCs and blood mDCs
T2 sequence (O43318 1-606): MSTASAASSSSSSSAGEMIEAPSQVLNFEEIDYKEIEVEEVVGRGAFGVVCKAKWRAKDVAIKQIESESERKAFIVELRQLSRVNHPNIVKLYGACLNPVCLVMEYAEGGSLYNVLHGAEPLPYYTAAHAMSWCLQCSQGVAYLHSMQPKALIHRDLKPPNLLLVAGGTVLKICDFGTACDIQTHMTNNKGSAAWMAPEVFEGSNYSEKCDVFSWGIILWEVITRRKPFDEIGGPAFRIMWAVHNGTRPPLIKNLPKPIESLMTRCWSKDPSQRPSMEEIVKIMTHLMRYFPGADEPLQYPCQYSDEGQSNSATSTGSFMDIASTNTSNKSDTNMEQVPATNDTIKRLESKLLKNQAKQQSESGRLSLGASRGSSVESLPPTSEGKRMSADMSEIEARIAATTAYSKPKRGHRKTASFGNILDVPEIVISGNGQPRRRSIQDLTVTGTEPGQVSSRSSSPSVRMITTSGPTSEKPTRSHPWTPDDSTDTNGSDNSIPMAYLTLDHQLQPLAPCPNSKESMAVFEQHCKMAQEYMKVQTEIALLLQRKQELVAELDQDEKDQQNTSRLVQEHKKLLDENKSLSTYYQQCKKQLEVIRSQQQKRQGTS
Protocol: When mDCs were co-cultured with MDA-MB231 cells for 5-90 minutes, phosphorylated (p)TAK1 could only be detected after 60 minutes (FIG. 7D). To confirm that the phosphorylation of TAK1 is TGF-β mediated, TGF-β signaling blocking reagents (TGF-β neutralizing antibody and TGF-βR kinase inhibitor) were added to the co-culture of cancer cells and mDCs. […] To examine whether TAK1-signaling participate in modulation of IL-1β production, a co-culture of cancer cells and myeloid cells was used. […]

TAK1 [3] = target: T2, TAK1; test: Caspase-1 activity (FACS) in monocytes treated with cancer-culture sups; type: cell-based; conditions: monocytes treated with cancer-culture sups 16 hours; 200 nm TAK1 inhibitor
Protocol: For surface staining, cells were incubated with the antibodies for 30 minutes at 4° C. in the dark, then washed three times and fixed with 1% paraformaldehyde to be analyzed in a FACS Canto (Becton Dickinson). […] For caspase-1 staining, cells were incubated with substrates (CaspaLux-E1D2, Oncolmmunin, Inc.) for 50 minutes at 37° C. and washed with washing buffer 2 times, then stained for surface markers for 10 minutes at room temperature.
Monocytes were treated with cancer-culture sups for 16 hours in the presence of a TAK1 specific inhibitor or DMSO as control. Caspase-1 activity was measured using the FACS based method. Cells were gated based on CD11c^+ viable cells.

[4] = 100 mg daily SC; cited from earlier work
[5] = pediatric patients with SOJIA; cited from earlier work
[6] = tested on: Hs-578t breast cancer cells; test: Tumor growth of Hs-578t xenograft in irradiated NOD/SCID/β2m−/− mice reconstituted with DCs and T cells; type: in vivo
Protocol: (§1) NOD/SCID/β2 m^−/− mice ([…]) were sublethally irradiated (12 cGy/g body weight of 137Cs γ irradiation) the day before tumor implantation. Then 10 million Hs-578t breast cancer cells harvested from cultures were injected subcutaneously into the flanks. Mice were then reconstituted with 1 million monocyte-derived DCs (MDDCs) and autologous T cells. CD4^+ and CD8^+ T cells were positively selected from thawed PBMCs using magnetic selection according to the manufacturer's instructions (Miltenyi Biotec). The purity was routinely >90%. 10 million CD4^+ T cells and 10 million CD8^+ T cells were transferred at days 3, 6, and 9 after tumor implantation. MDDCs were generated from the adherent fraction of PBMCs by culturing with 100 ng/ml GM-CSF and 10 ng/ml IL-4 (R&D Systems). Anakinra (2 mg/kg body weight) or PBS were injected daily in peritumor area since day 3 after tumor engraftment. 200 ug TSLPR blocking antibody was given on day 3,6,9. In some experiments, TGF-13 blocking antibody was given on day 3,6,9. Tumor size was monitored every 2-3 d. Tumor volume (ellipsoid) was calculated as follows: ([short diameter]^2×long diameter)/2. On day 16, the tumors were harvested. In some experiments, only one time DCs and total T cells transfer was done. Cell suspension was obtained from breast cancer tissue of above mice. Cell suspensions were obtained by digestion with 2.5 mg/ml of collagenase D (Roche Diagnostics, Indianapolis, Ind.), and 200 U/ml of DNAse I (Sigma-Aldrich, St. Louis, Mo.) for 30 minutes at 37° C. Washed three times and analyzed with FACS-CantoII (Becton Dickinson).
Thus, involvement of IL-1β in the TSLP-dependent in vivo model was evaluated. The availability of IL-1β in the xenograft mice model was first evaluated. HS-578t cells were injected subcutaneously into the flank of irradiated NOD/SCID/β2 m^−/− mice. MDDCs plus autologous total T cells were injected intratumorally on D3,6, and 9 after tumor cells injection (FIG. 15A). When tumors grew to 100-150 mm^3 in volume, mice were sacrificed and tumors were frozen in OCT for tissue staining. Similar with what observed in patient primary tumors (FIG. 5), IL-1β^+ cells also infiltrated in the tumor of xenograft model (FIG. 15B). […] Then we tried to understand whether TGF-β or IL-1β blocking could affect tumor growth through affecting the availability of IL-1β. Anti-TGF-β neutralizing antibody, isotype antibody as control, IL-1R antagonist Anakinra, or anti-TSLPR neutralizing antibody were each injected together with DC plus T cells (FIG. 15A). […] In some experiments, small pieces of tumor tissue from mice were cultured for 16 hours in the presence of PMA and ionomycin. Th2 cytokines were measured by Luminex in the culture sups (FIG. 8B).

Th2 cytokines = test: Cytokines by Luminex in supernatants of day 16 mouse tumor fragments stimulated with PMA and ionomycin; type: in vivo, mice; conditions: day 16 tumors; versus PBS group
Protocol: as §1
Thus, involvement of IL-1β in the TSLP-dependent in vivo model was evaluated. The availability of IL-1β in the xenograft mice model was first evaluated. HS-578t cells were injected subcutaneously into the flank of irradiated NOD/SCID/β2 m^−/− mice. MDDCs plus autologous total T cells were injected intratumorally on D3,6, and 9 after tumor cells injection (FIG. 15A). […] Th2 cytokines were measured by Luminex in the culture sups (FIG. 8B).

CD4^+CD3^+T cells = test: Intracellular cytokine FACS of CD4+CD3+ T cells from xenograft tumors; type: in vivo, mice
Protocol: as §1
To confirm whether the decreased IL-13 level is due to less infiltration of IL-13 producing cells, single cell suspensions were prepared from the tumors harvested from both the PBS and the Anakinra treatment groups. Intracellular staining for cytokines including IL-13, IL-4, TNF-α, and IFN-γ were combined with CD4, CD3 surface staining. Cells were analyzed by FACS, and gated on viable CD4^+CD3^+T cells. […] In the PBS group, about 10.2-46.4% of CD4^+CD3^+T cells express IL-13. […]

[7] = xenograft model, summary statement
[8] = tumors harvested from Anakinra treatment group

Question: Which “percentage of proIL-1β+ cells within HLA-DR+ cells” value (caspase-1; 1 uM caspase-1 inhibitor, MDA-MB231 cells and mDCs co-cultured 18 hours) does the source give for Cbz-WEHD-CH2F [caspase-1 inhibitor] here?
Answer: ~95%

Question: What about the “mature IL-1β staining” value (caspase-1; caspase-1 inhibitor, MDA-MB231 cells and mDCs co-culture) of the same molecule?
Answer: less mature IL-1β was detected

Question: For IL-1β: cytokine obtained from R&D, which “TSLP mRNA level by quantitative real-time PCR” value [1] is on record?
Answer: induce significant TSLP transcription

Question: What about the “TSLP levels in the culture supernatants (Luminex)” value ([1]; MDA-MB231 cells, different doses, 48 hours) of the same molecule?
Answer: induce TSLP production in a dose-dependent manner

Question: For `COc1cc(O)c2c(c1)/C=C/C[C@H](O)[C@H](O)C(=O)/C=C\C[C@H](C)OC2=O` [TAK1 inhibitor, 5z-7-oxozeaenol], which “IL-1β levels in co-culture supernatants (Luminex)” value (TAK1 [2]; cancer cells with monocytes, MDDC or mDC, 48 hours) is on record?
Answer: Substantially lower amounts of IL-1β were secreted

Question: What about the “expression of IL-1β by mDCs and monocytes (intracellular staining)” value (TAK1 [2]; co-culture 16 hours) of the same molecule?
Answer: prevented the expression of IL-1β by mDCs and monocytes

Question: What about the “activation of caspase-1 in monocytes” value (TAK1 [3]) of the same molecule?
Answer: prevented the activation of caspase-1

Question: Which results are given for “Anakinra: recombinant soluble non-glycosylated homolog of the human interleukin-1 receptor antagonist (IL-1Ra)”?
Answer: most common adverse reaction [4]: injection site reaction; safety profile [4]: favorable safety profile; patients with remarkable clinical and hematological responses [5]: > 70 % of patients; tumor volume (mean) ([6]; day 16, Anakinra 2 mg/kg daily peritumoral since day 3): 13 mm^3; tumor volume increase in PBS group compared to the Anakinra group ([6]; end of the observation, day 16): ~10 fold; OX40L+ expression on DCs ([6]; in vivo): blocks OX40L+ expression on DCs; tumor growth in vivo [6, 7]: prevents tumor growth in vivo; IL-4 in tumor tissue culture sups (Th2 cytokines): less IL-4; IL-13 in tumor tissue culture sups (Th2 cytokines): less IL-13; TSLP production in tumor tissue (Th2 cytokines): less TSLP production; CD4^+CD3^+T cells expressing IL-13 (CD4^+CD3^+T cells; [8]): 0.39-2.5%; effect on TNF-α and IFN-γ in CD4^+CD3^+T cells (CD4^+CD3^+T cells; [8]): no specific effect on TNF-α and IFN-γ; iTh2 generation in vivo (CD4^+CD3^+T cells; [7]): blocks iTh2 generation in vivo

B1: IL-1α: cytokine obtained from R&D (protein, UniProt P01583 113-271, looked up)
Interleukin-1 alpha: SAPFSFLSNVKYNFMRIIKYEFILNDALNQSIIRANDQYLTAAALHNLDEAVKFDMGAYKSSKDDAKITVILRISKTQLYVTAQDEDQPVLLKEMPEIPKTITGSETNLLFFWETHGTKNYFTSVAHPNLFIATKQDYWVCLAGGPPSITDFQILENQA
Question: With B1 as the molecule, how does the “TSLP mRNA level by quantitative real-time PCR” value [1] read?
Answer: induce significant TSLP transcription
